EP0194905A1, “5',5'''-P1,P4-diadenosine-tetraphosphate alpha-,beta-phosphorylase and its use in the preparation of isotope-labelled nucleotides” (priority 1985, dated 1986)
Each block holds one molecule with its values, some of them ahead of it.

How the values were obtained:
[1] = target: T1, AMP-désaminase (Rattus norvegicus, UniProt P10759); conditions: enzyme from rat muscle; cited from earlier work
T1 construct: host or cells: rat muscle
T1 sequence (P10759 1-747): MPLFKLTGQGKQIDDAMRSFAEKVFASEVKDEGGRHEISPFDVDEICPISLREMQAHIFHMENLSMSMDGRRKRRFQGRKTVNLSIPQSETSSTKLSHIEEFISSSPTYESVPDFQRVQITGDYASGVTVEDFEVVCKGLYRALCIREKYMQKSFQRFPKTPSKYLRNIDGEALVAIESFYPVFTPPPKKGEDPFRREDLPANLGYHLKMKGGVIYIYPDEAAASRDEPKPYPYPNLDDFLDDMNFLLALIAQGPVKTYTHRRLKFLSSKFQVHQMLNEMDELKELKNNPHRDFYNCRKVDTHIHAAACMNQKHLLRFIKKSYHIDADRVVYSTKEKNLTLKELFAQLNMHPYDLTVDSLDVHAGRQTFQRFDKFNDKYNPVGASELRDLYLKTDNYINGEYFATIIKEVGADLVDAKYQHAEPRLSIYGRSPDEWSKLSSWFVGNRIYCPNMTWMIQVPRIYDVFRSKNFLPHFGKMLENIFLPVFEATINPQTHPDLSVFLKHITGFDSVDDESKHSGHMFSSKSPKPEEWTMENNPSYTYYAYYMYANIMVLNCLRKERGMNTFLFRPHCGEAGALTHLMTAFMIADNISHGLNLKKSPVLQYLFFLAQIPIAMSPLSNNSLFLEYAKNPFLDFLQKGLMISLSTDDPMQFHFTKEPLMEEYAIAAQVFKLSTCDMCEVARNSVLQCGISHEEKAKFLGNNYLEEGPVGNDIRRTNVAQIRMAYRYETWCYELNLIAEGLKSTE

[2] = target: T2, Ap4A-phosphorylase (Saccharomyces cerevisiae, UniProt P16550); assay: Ap4A-phosphorylase activity: initial rates of phosphorolysis of Ap4A and related substrates (PEI-cellulose TLC, radioactivity); format: biochemical; conditions: for substrat de l'Ap4A-phosphorylase (behaviour as substrate): compounds structurally related to Ap4A, in presence of phosphate; for conversion de l'Ap4A when phosphate is replaced: 10 mM in place of phosphate, 500 µM MnCl2 or 5 mM MgCl2; for vitesses de phosphorolyse, % du taux observé pour l'Ap4A: standard incubation medium, 500 uM substrate
T2 construct: l'Ap4A phosphorylase est constituée d'une seule chaîne; endogenous in cells; host or cells: Saccharomyces cerevisiae yeast cells; enzyme purified by ammonium sulfate, DEAE-Sephacel, Sephadex G-100, hydroxyapatite and Sephadex G-75 superfine
T2 sequence (P16550 1-321): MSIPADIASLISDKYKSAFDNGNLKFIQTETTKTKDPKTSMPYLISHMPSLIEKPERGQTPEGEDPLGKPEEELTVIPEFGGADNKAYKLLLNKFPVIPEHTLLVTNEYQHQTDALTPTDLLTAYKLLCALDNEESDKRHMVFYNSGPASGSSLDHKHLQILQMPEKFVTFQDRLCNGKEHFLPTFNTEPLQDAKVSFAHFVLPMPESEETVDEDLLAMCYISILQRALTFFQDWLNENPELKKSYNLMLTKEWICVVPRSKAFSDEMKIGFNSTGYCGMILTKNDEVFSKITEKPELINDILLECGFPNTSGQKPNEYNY
Protocol: (§1) L'activité de l'Ap4A-phosphorylase a été déterminée à 37°C. Le mélange d'incubation standard contenait, dans un volume final de 25 ou 50 µl, du tampon 50 mM acide 4-(2-hydroxyéthyl)-1-pipérazine éthane sulfonique (Hepes)/KOH (pH 8,2), 1 mM 2-mercaptoéthanol, 2 % de glycérol, 500 µM MnCl2, […], 500 uM de [^3H]Ap4A (1 pmol = 20 cpm), de la sérum-albumine bovine (0,4 mg/ml) et une solution d'enzyme diluée de façon appropriée en présence de 2 mg/ml de sérum-albumine bovine. Dans certains cas, l'activité a été suivie à l'aide de [^32P]K2HPO4.
Pour mesurer les vitesses initiales, de phosphorolyse, on a déposé des prélèvements de 2 µl sur des couches minces de polyéthylèneimine-cellulose contenant un indicateur fluorescent (foumies par MERCK) après 2, 4, 8 et 16 min de réaction.
Des standards d'Ap4A et d'ADP ont été ajoutés et les chromatogrammes ont été développés tout d'abord pendant 15 min dans le méthanol à 75 %, puis pendant 1 h dans du chlorure de lithium 0,85 M. Les valeurs Rf des composés standards étaient respectivement de 0,15 (Ap4A) et 0,25 (ADP), la valeur Rf du phosphate était de 0,55. Les taches d'ADP visualisées sous lumière ultraviolette ont été découpées et immergées dans 5 ml de mélange de scintillation et la radioactivité a été mesurée. Au cours des différentes étapes de purification, l'enzyme a été testée en l'absence de radioactivité; les fractions actives ont été afors directement identifiées sur les chromatogrammes sous lumière ultraviolette.
La dégradation enzymatique de l'Ap4A par l'enzyme selon l'invention, c'est-à-dire l'Ap4A-phosphorylase, a été caractérisée par identification des produits de ladite réaction de dégradation par co-migration avec des composés standards authentiques sur des couches minces de polyéthylèneimine-cellulose. Cette identification a été confirmée sur une colonne de Lichrosorb RP-18 (MERCK) en utilisant un système HPLC (chromatographie liquide haute performance) avec une élution isocratique par du phosphate de potassium 25 mM, pH 5,3 selon la méthode de BREVET et al. décrite dans J.Biol.Chem. (1982), 257. 14613-14615. La colonne de chromatographie a été utilisée avec une pompe modèle 112, un injecteur modèle 210 et un détecteur d'absorbance modèle 160 (matériel BECKMAN), en opérant à 254 nm avec une sensibilité de 0,002 unité d'absorbance pleine échelle.

[3] = target: T2, Ap4A-phosphorylase; assay: NDP-P* exchange reaction catalysed by Ap4A-phosphorylase; format: biochemical; conditions: AMPS versus ADP
From the text: (§2) On a estimé les constantes de Michaelis Km et les vitesses d'échange pour différents NDP au pH optimum, lequel varie en fonction des substrats. Les résultats obtenus sont rassemblés dans le tableau Il ci-après ainsi que les conditions expérimentales.

[4] = target: T3, GMP-réductase (Homo sapiens, UniProt P36959); conditions: enzyme from human erythrocytes; cited from earlier work
T3 construct: host or cells: human erythrocytes
T3 sequence (P36959 1-345): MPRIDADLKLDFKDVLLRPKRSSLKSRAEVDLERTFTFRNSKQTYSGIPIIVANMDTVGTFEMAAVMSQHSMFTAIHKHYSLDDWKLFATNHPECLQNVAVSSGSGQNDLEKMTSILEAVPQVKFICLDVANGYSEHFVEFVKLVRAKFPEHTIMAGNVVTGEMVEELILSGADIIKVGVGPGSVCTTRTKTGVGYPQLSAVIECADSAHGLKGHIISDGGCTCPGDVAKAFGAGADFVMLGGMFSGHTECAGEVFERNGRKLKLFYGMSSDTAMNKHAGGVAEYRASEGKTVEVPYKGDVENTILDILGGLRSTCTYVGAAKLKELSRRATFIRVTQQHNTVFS

[5] = test system: GMP-réductase; conditions: enzyme from Artemia; cited from earlier work
[6] = target: T2, Ap4A-phosphorylase; assay: Effect of divalent metal ions on initial rates of Ap4A phosphorolysis; format: biochemical
Protocol: Les vitesses initiales de la phosphorolyse de l'Ap4A ont été mesurées dans un milieu contenant 50 mM Hepes/KOH (pH 8,2); 1 mM de 2-mercaptoéthanol; 2 % de glycérol et 0,4 mg/ml de sérum-albumine bovine, 5 mM K2HPO4; 500 uM [^3H] Ap4A et différentes concentrations de chlorures de manganèse, de magnésium, de calcium, de cobalt ou de cadmium.
Les résultats obtenus sont indiqués sur le graphe de la figure 2 annexée sur lequel on a porté en ordonnées les vitesses initiales de phosphorolyse de l'Ap4A exprimées en pourcentages de la vitesse observée avec 500 uM MnCl2-(36 s-') et en abscisses la concentration en ions métalliques exprimée en mM.
Les différentes courbes correspondent respectivement aux chlorures ci-après : courbe A (O - O) = MnCl2 [formula] [formula] [formula] [formula]

[7] = substrate: Nc1ncnc2c1ncn2[C@@H]1O[C@H](COP(=O)(O)OS(=O)(=O)O)[C@@H](O)[C@H]1O; assay: purified protein, by the assay type; conditions: other: NDP-P* exchange at optimum pH, 37°C
[8] = substrate: Nc1ncnc2c1ncn2[C@@H]1O[C@H](COP(=O)(O)OP(=O)(O)OP(=O)(O)OP(=O)(O)OC[C@H]2O[C@@H](n3cnc4c(N)ncnc43)[C@H](O)[C@@H]2O)[C@@H](O)[C@H]1O; assay: Ap4A-phosphorylase activity: initial rates of phosphorolysis of Ap4A and related substrates (PEI-cellulose TLC, radioactivity); format: biochemical, Saccharomyces cerevisiae; conditions: other: 37°C, 50 mM Hepes/KOH pH 8,2, 500 µM MnCl2, 10 mM K2HPO4, 1 mM 2-mercaptoéthanol, 2 % glycérol, pH 8.2
Protocol: as §1
Pour mesurer les vitesses initiales, de phosphorolyse, on a déposé des prélèvements de 2 µl sur des couches minces de polyéthylèneimine-cellulose contenant un indicateur fluorescent (foumies par MERCK) après 2, 4, 8 et 16 min de réaction. […]
La dégradation enzymatique de l'Ap4A par l'enzyme selon l'invention, c'est-à-dire l'Ap4A-phosphorylase, a été caractérisée par identification des produits de ladite réaction de dégradation par co-migration avec des composés standards authentiques sur des couches minces de polyéthylèneimine-cellulose. […] La colonne de chromatographie a été utilisée avec une pompe modèle 112, un injecteur modèle 210 et un détecteur d'absorbance modèle 160 (matériel BECKMAN), en opérant à 254 nm avec une sensibilité de 0,002 unité d'absorbance pleine échelle.

[9] = substrate: Nc1nc2c(ncn2[C@@H]2O[C@H](COP(=O)(O)OP(=O)(O)O)[C@@H](O)[C@H]2O)c(=O)[nH]1; assay: NDP-P* exchange reaction catalysed by Ap4A-phosphorylase; format: biochemical, Saccharomyces cerevisiae; conditions: other: NDP-P* exchange at optimum pH, 37°C
From the text: as §2

[10] = substrate: O=c1ccn([C@@H]2O[C@H](COP(=O)(O)OP(=O)(O)O)[C@@H](O)[C@H]2O)c(=O)[nH]1; assay: as above; format: biochemical, Saccharomyces cerevisiae; conditions: other: NDP-P* exchange at optimum pH, 37°C
From the text: as §2

[11] = substrate: Nc1ccn([C@@H]2O[C@H](COP(=O)(O)OP(=O)(O)O)[C@@H](O)[C@H]2O)c(=O)n1; assay: as above; format: biochemical, Saccharomyces cerevisiae; conditions: other: NDP-P* exchange at optimum pH, 37°C
From the text: as §2

[12] = substrate: Nc1ncnc2c1ncn2[C@@H]1O[C@H](COP(=O)(O)OP(=O)(O)O)[C@@H](O)[C@H]1O; assay: as above; format: biochemical, Saccharomyces cerevisiae; conditions: other: NDP-P* exchange at optimum pH, 37°C
From the text: as §2

vitesse de la réaction de phosphorolyse ([2]; Ap4A saturant): 36 s⁻¹
substrat de l'Ap4A-phosphorylase (behaviour as substrate) [2]: substrat préféré
Molecule: Nc1ncnc2c1ncn2[C@@H]1O[C@H](COP(=O)(O)OP(=O)(O)OP(=O)(O)OP(=O)(O)OC[C@H]2O[C@@H](n3cnc4c(N)ncnc43)[C@H](O)[C@@H]2O)[C@@H](O)[C@H]1O (single isomer, unassigned; diad) [Ap4A, 5',5"'-P^1,P^4-diadénosine-tétraphosphate]
effect on activité de l'AMP-désaminase [1]: double l'activité

conversion de l'Ap4A when phosphate is replaced [2]: aucune conversion
Molecule: pyrophosphate

Molecule: Nc1ncnc2c1ncn2[C@@H]1O[C@H](COP(=O)(O)OS(=O)(=O)O)[C@@H](O)[C@H]1O [AMPS, adénosine 5'-phosphosulfate]
rapport V/km, fold higher than for ADP [3]: ~5 fois

substrat de l'Ap4A-phosphorylase (behaviour as substrate) [2]: substrats
vitesses de phosphorolyse, % du taux observé pour l'Ap4A [2]: 40%
Molecule: Nc1nc2c(ncn2[C@@H]2O[C@H](COP(=O)(O)OP(=O)(O)OP(=O)(O)OP(=O)(O)OC[C@H]3O[C@@H](n4cnc5c(=O)[nH]c(N)nc54)[C@H](O)[C@@H]3O)[C@@H](O)[C@H]2O)c(=O)[nH]1 [Gp4G, Diguanosine tétraphosphate]
effect on GMP-réductase [4]: effet positif spécifique
effect on GMP-réductase [5]: effet positif spécifique

substrat de l'Ap4A-phosphorylase (behaviour as substrate) [2]: substrats
vitesses de phosphorolyse, % du taux observé pour l'Ap4A [2]: 50%
Molecule: Nc1ncnc2c1ncn2[C@@H]1O[C@H](COP(=O)(O)OP(=O)(O)OP(=O)(O)OP(=O)(O)OP(=O)(O)OC[C@H]2O[C@@H](n3cnc4c(N)ncnc43)[C@H](O)[C@@H]2O)[C@@H](O)[C@H]1O (single isomer, unassigned; diad) [Ap5A, Diadénosine pentaphosphate]

substrat de l'Ap4A-phosphorylase (behaviour as substrate) [2]: ne soient pas des substrats
Molecule: Nc1ncnc2c1ncn2[C@@H]1O[C@H](COP(=O)(O)OP(=O)(O)OP(=O)(O)OP(=O)(O)O)[C@@H](O)[C@H]1O [p4A, Adénosine tétraphosphate]

Km ([2]; phosphorolysis of Ap4A, read-out: Km du phosphate): 1000 µM
Molecule: phosphate

conversion de l'Ap4A when phosphate is replaced [2]: aucune conversion
Molecule: sulfate

Molecule: MnCl2
vitesse initiale de phosphorolyse de l'Ap4A ([6]; 500 uM MnCl2, 5 mM K2HPO4, 500 uM [3H]Ap4A, pH 8,2 (100 % reference of figure 2)): 36 s-'
activity of metal ions in supporting phosphorolyse de l'Ap4A ([6]; chlorides of Mn, Mg, Ca, Co, Cd at various concentrations (figure 2)): les plus actifs

substrat de l'Ap4A-phosphorylase (behaviour as substrate) [2]: ne soient pas des substrats
Molecule: Nc1ncnc2c1ncn2[C@@H]1O[C@H](COP(=O)(O)OP(=O)(O)OP(=O)(O)OC[C@H]2O[C@@H](n3cnc4c(N)ncnc43)[C@H](O)[C@@H]2O)[C@@H](O)[C@H]1O (single isomer, unassigned; diad) [Ap,A, Diadénosine triphosphate]

B1: Ap4A-phosphorylase (Saccharomyces cerevisiae S288C) (protein)
chain: T2 sequence (P16550 1-321)
notes: l'Ap4A phosphorylase est constituée d'une seule chaîne; endogenous in cells; host or cells: Saccharomyces cerevisiae yeast cells; enzyme purified by ammonium sulfate, DEAE-Sephacel, Sephadex G-100, hydroxyapatite and Sephadex G-75 superfine
Km [7]: 500 µM
Km [8]: 60 µM
Km [9]: 700 µM
Km [10]: 3700 µM
Km [11]: 2800 µM
Km [12]: 740 µM
